This note sets out measurements from patent publication US11401286B2 (Tetra Discovery Partners, LLC, priority 2012, dated 2022).

Where a name gives a salt, the structure may show the parent alone. Where only a bound is given, the exact number is not on record here.

The target of the test is PDE4D7 (Homo sapiens (Human), UniProt Q08499). To be noted: read-out: PDE4D7 IC50; PDE4D7 without asterisk.
PDE4D7, sequence (Q08499 other isoform, or with tags, fused parts or gaps): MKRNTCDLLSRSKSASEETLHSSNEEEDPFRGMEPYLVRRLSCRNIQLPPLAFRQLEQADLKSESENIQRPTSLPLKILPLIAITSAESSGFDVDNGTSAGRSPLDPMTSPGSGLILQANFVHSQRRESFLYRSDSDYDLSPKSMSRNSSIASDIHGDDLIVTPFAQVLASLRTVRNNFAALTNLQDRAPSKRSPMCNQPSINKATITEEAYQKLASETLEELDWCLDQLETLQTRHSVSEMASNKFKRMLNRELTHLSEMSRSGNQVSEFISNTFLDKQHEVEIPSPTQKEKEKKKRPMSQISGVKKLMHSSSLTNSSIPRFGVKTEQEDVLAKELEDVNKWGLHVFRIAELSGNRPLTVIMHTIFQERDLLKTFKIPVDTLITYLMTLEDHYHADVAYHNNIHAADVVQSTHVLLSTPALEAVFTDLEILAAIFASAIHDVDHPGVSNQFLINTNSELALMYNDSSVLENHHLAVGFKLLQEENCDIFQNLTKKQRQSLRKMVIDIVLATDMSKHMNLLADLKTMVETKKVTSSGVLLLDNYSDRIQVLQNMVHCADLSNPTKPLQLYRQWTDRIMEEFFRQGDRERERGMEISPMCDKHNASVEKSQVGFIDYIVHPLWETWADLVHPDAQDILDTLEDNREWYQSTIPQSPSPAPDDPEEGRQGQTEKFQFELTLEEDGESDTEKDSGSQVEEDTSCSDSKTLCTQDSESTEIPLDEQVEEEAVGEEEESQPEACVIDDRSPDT
Experimental: Here, a kinetic assay of cAMP hydrolysis by purified PDE4 was used, in which PDE4 activity was measured by coupling the formation of the PDE4 reaction product, 5′-adenosine monophosphate, to the oxidation of reduced nicotinamide adenine dinucleotide (NADH) by the use of three coupling enzymes (myokinase, pyruvate kinase and lactate dehydrogenase), which allows fluorescent determination of reaction rates. Assays are performed in 96-well plates in a total volume of 200 μl/well. Compounds are dissolved in dimethylsulfoxide (DMSO) and added to plates in a volume of 10 μl followed by addition of 165 μl of assay mix. Plates are pre-incubated at 25° C. for 15 min and the reactions are initiated by the addition of 25 μl of cAMP followed by thorough mixing. […] Initial rates (slopes) are determined from linear portions of the progress curves. Final concentrations of assay components are as follows: 50 mM Tris, pH 8, 10 mM MgCl2, 50 mM KCl, 2% DMSO, 5 mM tris(2-carboxyethyl)phosphine (TCEP), 0.4 mM phosphenolpyruvate (PEP), 0.01 mM NADH, 0.04 mM adenosine triphosphate (ATP), 0.004 mM cAMP, 7.5 units myokinase from yeast, 1.6 units pyruvate kinase, 2 units lactate dehydrogenase, and either 0.5 nM human PDE4D7 or 10 nM human PDE4B1. All data are percent normalized relative to controls and are presented as percent inhibition. […] Human PDE4D7 contained a mutation of serine 54 to aspartic acid to mimic activation by cAMP-dependent protein kinase A (PKA).
PDE4D7*=PDE4D7 containing a UCR1 activating mutation S54D.
For the molecule `CC(C)Oc1cc(Nc2ccc(CCO)cc2)c2c(n1)CCC2` [Example 260, 2-(4-((2-Isopropoxy-6,7-dihydro-5H-cyclopenta[b]pyridin-4-yl)amino)phenyl)ethanol hydrochloride], the IC50 is greater than 1 µM. In the case of `NC(=O)Cc1ccc(Nc2cc(-c3ccsc3)nc3c2CCC3)cc1` [Example 244, 2-(4-((2-(Thiophen-3-yl)-6,7-dihydro-5H-cyclopenta[b]pyridin-4-yl)amino)phenyl)acetamide], the IC50 is greater than 1 µM. Regarding `NC(=O)C(CO)Cc1ccc(Nc2cc(-c3cccc(Cl)c3)nc3c2CCC3)cc1` (stereo not shown) [Example 108, 2-(4-((2-(3-Chlorophenyl)-6,7-dihydro-5H-cyclopenta[b]pyridin-4-yl)amino)benzyl)-3-hydroxypropanamide hydrochloride], the IC50 is less than 1 µM. For the molecule `OCCc1ccc(Nc2cc(-c3ccc(Cl)cc3)nc3c2CCC3)cc1` [Example 149, 2-(4-((2-(4-Chlorophenyl)-6,7-dihydro-5H-cyclopenta[b]pyridin-4-yl)amino)phenyl)ethanol hydrochloride], the IC50 is greater than 1 µM. As for `CCCNC(=O)Cc1ccc(Nc2nc(-c3ccc(Cl)s3)nc(C)c2CC)cc1` [Example 307, 2-[4-[[2-(5-Chloro-2-thienyl)-5-ethyl-6-methyl-pyrimidin-4-yl]amino]phenyl]-N-propyl-acetamide], the IC50 was less than 1 µM.

As to `NC(=O)Cc1ccc(Nc2nc(C3CCCC3)nc3c2SCCC3)cc1` [Example 284, 2-(4-((2-cyclopentyl-7,8-dihydro-6H-thiopyrano[3,2-d]pyrimidin-4-yl)amino)phenyl)acetamide], the IC50 was less than 1 µM. For `O=S1(=O)CCCc2nc(-c3cccc(Cl)c3)nc(Nc3ccc(CCO)cc3)c21` [Example 273, 2-(3-Chlorophenyl)-4-((4-(2-hydroxyethyl)phenyl)amino)-7,8-dihydro-6H-thiopyrano[3,2-d]pyrimidine 5,5-dioxide], the IC50 is less than 1 µM.

With `NC(=O)Cc1ccc(Nc2cc(C3=CCCC3)nc3c2CCC3)cc1` [Example 246, 2-(4-((2-(Cyclopent-1-en-1-yl)-6,7-dihydro-5H-cyclopenta[b]pyridin-4-yl)amino)phenyl)acetamide hydrochloride], the IC50 is greater than 1 µM. Turning to `CN(C)C(=O)Cc1ccc(Nc2cc(-c3cccc(Cl)c3)nc3c2CCC3)cc1` [Example 121, 2-(4-((2-(3-chlorophenyl)-6,7-dihydro-5H-cyclopenta[b]pyridin-4-yl)amino)phenyl)-N,N-dimethylacetamide hydrochloride], the IC50 was less than 1 µM. Regarding `CCc1cc(Nc2ccc(C(CO)C(F)(F)F)cc2)nc(-c2cccc(Cl)c2)n1` (stereo not shown) [Example 186, 2-(4-((2-(3-Chlorophenyl)-6-ethylpyrimidin-4-yl)amino)phenyl)-3,3,3-trifluoropropan-1-ol], the IC50 is greater than 1 µM. For `CCc1c(C)nc(-c2ccc(Cl)s2)nc1Nc1ccc(B(O)O)cc1` [Example 292, [4-[[2-(5-Chloro-2-thienyl)-5-ethyl-6-methyl-pyrimidin-4-yl]amino]phenyl]boronic acid] the value was less than 1 µM; for `CN(C(N)=O)c1ccc(Nc2cc(-c3cccc(Cl)c3)nc3c2CCC3)cc1` [Example 129, 1-(4-((2-(3-Chlorophenyl)-6,7-dihydro-5H-cyclopenta[b]pyridin-4-yl)amino)phenyl)-1-methylurea hydrochloride], greater than 1 µM. With `OCCc1ccc(Nc2nc(C3CCCC3)nc3c2CCC3)cc1` [Example 217, 2-(4-((2-Cyclopentyl-6,7-dihydro-5H-cyclopenta[d]pyrimidin-4-yl)amino)phenyl)ethanol], the IC50 was greater than 1 µM.

Turning to `CC(C)c1nc(Nc2ccc(CC(=O)O)cc2)nc(-c2ccc(Cl)s2)n1` [Example 25, 2-(4-((4-(5-chlorothiophen-2-yl)-6-isopropyl-1,3,5-triazin-2-yl)amino)phenyl)acetic acid], the IC50 was greater than 1 µM. `OCCc1ccc(Nc2cc(-c3cc(F)cc(Cl)c3)nc3c2CCC3)cc1` [Example 153, 2-(4-((2-(3-Chloro-5-fluorophenyl)-6,7-dihydro-5H-cyclopenta[b]pyridin-4-yl)amino)phenyl)ethanol hydrochloride]: the IC50 is greater than 1 µM. `CCOC(=O)Cc1ccc(Nc2cc(C3CC3)nc(-c3cccc(Cl)c3)n2)nc1` [Example 211, Ethyl 2-(6-((2-(3-chlorophenyl)-6-cyclopropylpyrimidin-4-yl)amino)pyridin-3-yl)acetate]: the IC50 was greater than 1 µM. `OCC[C@H]1CC[C@H](Nc2cc(-c3cccc(Cl)c3)nc3c2CCC3)CC1` [Example 97, Trans-2-(4-((2-(3-chlorophenyl)-6,7-dihydro-5H-cyclopenta[b]pyridin-4-yl)amino)cyclohexyl)ethanol hydrochloride]: the IC50 was greater than 1 µM. For `CC(=O)NC(C(=O)O)c1ccc(Nc2nc(-c3ccc(Cl)s3)nc3c2CCC3)cc1` (stereo not shown) [Example 11, 2-Acetamido-2-[4-[[2-(5-chloro-2-thienyl)-6,7-dihydro-5H-cyclopenta[d]pyrimidin-4-yl]amino]phenyl]acetic acid] the value was greater than 1 µM.

`OCCc1ccc(Cc2cc(C(F)(F)F)nc(-c3cccc(Cl)c3)n2)cc1` [Example 205, 2-(4-((2-(3-Chlorophenyl)-6-(trifluoromethyl)pyrimidin-4-yl)methyl)phenyl)ethanol]: the IC50 was greater than 1 µM.

For the molecule `OCCc1ccc(Nc2cc(-c3ncco3)nc3c2CCC3)cc1` [Example 241, 2-(4-((2-(Oxazol-2-yl)-6,7-dihydro-5H-cyclopenta[b]pyridin-4-yl)amino)phenyl)ethanol], the 50% inhibitory concentration (IC50) was greater than 1 µM.

On to `NC(=O)Cc1ccc(Cc2cc(C(F)(F)F)nc(OC3CCCC3)n2)cc1` [Example 201, 2-(4-((2-(Cyclopentyloxy)-6-(trifluoromethyl)pyrimidin-4-yl)methyl)phenyl)acetamide], for which the IC50 was greater than 1 µM. For `NC(=O)Cc1ccc(Nc2cc(C3CCCCC3)nc3c2CCC3)cc1` [Example 250, 2-(4-((2-Cyclohexyl-6,7-dihydro-5H-cyclopenta[b]pyridin-4-yl)amino)phenyl)acetamide hydrochloride], the IC50 was greater than 1 µM. In the case of `O=S1(=O)CCCc2nc(C3CCCC3)nc(Nc3ccc(CCCO)cc3)c21` [Example 287, 2-Cyclopentyl-4-((4-(3-hydroxypropyl)phenyl)amino)-7,8-dihydro-6H-thiopyrano[3,2-d]pyrimidine 5,5-dioxide], the IC50 is less than 1 µM.

As to `C[C@H](O)Cc1ccc(Nc2nc(-c3cccc(Cl)c3)nc3c2CCC3)cc1` [Example 173, (S)-1-(4-((2-(3-Chlorophenyl)-6,7-dihydro-5H-cyclopenta[d]pyrimidin-4-yl)amino)phenyl)propan-2-ol], the IC50 was greater than 1 µM.

Turning to `CCc1cc(Oc2ccc(CC(N)=O)cn2)nc(-c2cccc(Cl)c2)n1` [Example 183, 2-(6-((2-(3-Chlorophenyl)-6-ethylpyrimidin-4-yl)oxy)pyridin-3-yl)acetamide], the IC50 is greater than 1 µM.

Regarding `CCc1nc(Nc2ccc(CC(=O)O)cc2)nc(-c2cccc(Cl)c2)n1` [Example 39, 2-(4-((4-(3-chlorophenyl)-6-ethyl-1,3,5-triazin-2-yl)amino)phenyl)acetic acid], the IC50 was greater than 1 µM. For `CC(CO)Oc1ccc(Nc2cc(-c3cccc(Cl)c3)nc3c2CCC3)cc1` (stereo not shown) [Example 117, 2-(4-((2-(3-Chlorophenyl)-6,7-dihydro-5H-cyclopenta[b]pyridin-4-yl)amino)phenoxy)propan-1-ol hydrochloride], the IC50 is greater than 1 µM.

As for `CCc1nc(Nc2ccc(F)cc2)nc(-c2ccc(Cl)s2)n1` [Example 28, 4-(5-chlorothiophen-2-yl)-6-ethyl-N-(4-fluorophenyl)-1,3,5-triazin-2-amine], the IC50 is greater than 1 µM. For `OCCc1ccc(C(O)c2cc(-c3cccc(Cl)c3)nc3c2CCC3)cc1` (stereo not shown) [Example 263, 2-(4-((2-(3-Chlorophenyl)-6,7-dihydro-5H-cyclopenta[b]pyridin-4-yl)(hydroxy)methyl)phenyl)ethanol] the value was greater than 1 µM.

Regarding `OCCc1ccc(Nc2nc(C3CCCC3)nc3c2SCCC3)cc1` [Example 283, 2-(4-((2-Cyclopentyl-7,8-dihydro-6H-thiopyrano[3,2-d]pyrimidin-4-yl)amino)phenyl)ethanol], the IC50 is less than 1 µM. Take `CC(O)Cc1ccc(Nc2nc(-c3cccc(Cl)c3)nc3c2CCC3)cc1` (stereo not shown) [Example 165, 1-(4-((2-(3-Chlorophenyl)-6,7-dihydro-5H-cyclopenta[d]pyrimidin-4-yl)amino)phenyl)propan-2-ol]: the IC50 was greater than 1 µM.

In the case of `OCCc1ccc(Nc2cc(C3CC3)nc(-c3cccc(Cl)c3)n2)cc1` [Example 206, 2-(4-((2-(3-Chlorophenyl)-6-cyclopropylpyrimidin-4-yl)amino)phenyl)ethanol], the IC50 is less than 1 µM.

As to `Clc1cccc(-c2nc3c(c(Nc4ccccc4)n2)CCC3)c1` [Example 166, 2-(3-Chlorophenyl)-N-phenyl-6,7-dihydro-5H-cyclopenta[d]pyrimidin-4-amine], the IC50 is greater than 1 µM. On to `NC(=O)Cc1ccc(C(O)c2cc(-c3cccc(Cl)c3)nc3c2CCC3)cc1` (stereo not shown) [Example 262, 2-(4-((2-(3-Chlorophenyl)-6,7-dihydro-5H-cyclopenta[b]pyridin-4-yl)(hydroxy)methyl)phenyl)acetamide hydrochloride], for which the IC50 is greater than 1 µM. `OCCc1ccc(Nc2cc(-c3cc(Cl)cc(Cl)c3)nc3c2CCC3)cc1` [Example 158, 2-(4-((2-(3,5-Dichlorophenyl)-6,7-dihydro-5H-cyclopenta[b]pyridin-4-yl)amino)phenyl)ethanol hydrochloride]: the IC50 is greater than 1 µM. As for `Cc1nc(Nc2ccc(F)cc2)nc(-c2ccc(Cl)s2)n1` [Example 23, 4-(5-chlorothiophen-2-yl)-N-(4-fluorophenyl)-6-methyl-1,3,5-triazin-2-amine], the 50% inhibitory concentration (IC50) is greater than 1 µM. With `NC(=O)Cc1ccc(Nc2cc(OC3CCCC3)nc3c2CCC3)cc1` [Example 256, 2-(4-((2-(Cyclopentyloxy)-6,7-dihydro-5H-cyclopenta[b]pyridin-4-yl)amino)phenyl)acetamide hydrochloride], the IC50 is greater than 1 µM.

The term IC50 denotes the concentration that inhibits the measured activity by half.
